Results: the supplement of paper PMC11061612

Tests used:
Test in all cases: combination Emax (second highest fraction inhibited in the dose matrix, 72 h); higher = more inhibition; extreme values may be limits of the assay
[1] = test system: MOLP-8 (Plasma Cell Myeloma)
Procedure, shortened: (§1)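 Cell lines grown in DMEM/F12 or RPMI with 10% FBS were plated in 1536-well plates and held 24 hours at 37°C, 5% CO2 before 72 hours of exposure to two-drug dose matrices, with DMSO typically at 0.2%. CellTiter-Glo 2.0 luminescence gave viability, which was converted to inhibition. Vehicle wells were set to 0 and blank wells to 1. Combination Emax is the second-highest inhibition in the matrix, and Bliss excess is the observed combination effect minus the expected EA + EB − EA·EB, where EA and EB are the single-agent effects.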

[2] = test system: NCI-H1963 (Small Cell Lung Carcinoma)
Procedure, shortened: as §1

SK-N-SH (Neuroblastoma) = test system: SK-N-SH (Neuroblastoma)
Procedure, shortened: as §1

NCI-H226 (Mesothelioma) = test system: NCI-H226 (Mesothelioma)
Procedure, shortened: as §1

[3] = test system: HT-1080 (Other Solid Carcinomas)
Procedure, shortened: as §1

[4] = test system: P32-ISH (Burkitt's Lymphoma)
Procedure, shortened: as §1

[5] = test system: ZR-75-30 (Breast Carcinoma)
Procedure, shortened: as §1

[6] = test system: SNU-407 (Colorectal Carcinoma)
Procedure, shortened: as §1

[7] = test system: PA-TU-8988T (Pancreatic Carcinoma)
Procedure, shortened: as §1

KALS-1 (Glioblastoma) = test system: KALS-1 (Glioblastoma)
Procedure, shortened: as §1

[8] = test system: MS-1 (Small Cell Lung Carcinoma)
Procedure, shortened: as §1

[9] = test system: Raji (Burkitt's Lymphoma)
Procedure, shortened: as §1

[10] = test system: TUR (Acute Myeloid Leukemia)
Procedure, shortened: as §1

[11] = test system: SNU-C2B (Colorectal Carcinoma)
Procedure, shortened: as §1

[12] = test system: NCI-H3118 (Head and Neck Carcinoma)
Procedure, shortened: as §1

[13] = test system: BxPC-3 (Pancreatic Carcinoma)
Procedure, shortened: as §1

[14] = test system: MONO-MAC-6 (Acute Myeloid Leukemia)
Procedure, shortened: as §1

[15] = test system: MDA-MB-415 (Breast Carcinoma)
Procedure, shortened: as §1

[16] = test system: NMC-G1 (Low Grade Glioma)
Procedure, shortened: as §1

[17] = test system: OAW-28 (Ovarian Carcinoma)
Procedure, shortened: as §1

Row | Compound | combination Emax [1] | combination Emax [2] | combination Emax (SK-N-SH (Neuroblastoma)) | combination Emax (NCI-H226 (Mesothelioma)) | combination Emax [3] | combination Emax [4] | combination Emax [5] | combination Emax [6] | combination Emax [7] | combination Emax (KALS-1 (Glioblastoma)) | combination Emax [8] | combination Emax [9] | combination Emax [10] | combination Emax [11] | combination Emax [12] | combination Emax [13] | combination Emax [14] | combination Emax [15] | combination Emax [16] | combination Emax [17]
1 | CN(CCO)CC[C@H](CSc1ccccc1)Nc1ccc(S(=O)(=O)NC(=O)c2ccc(N3CCC([C@@H](O)c4ccccc4-c4ccc(Cl)cc4)CC3)cc2)cc1S(=O)(=O)C(F)(F)F [AZD4320] + C=CCn1c(=O)c2cnc(Nc3ccc(N4CCN(C)CC4)cc3)nc2n1-c1cccc(C(C)(C)O)n1 [AZD1775] (first compound max 1 µM, partner max 1 µM) | 0.831 | 1 | 0.934 | 0.407 | 0.718 | 0.994 | 0.173 | 0.415 | 0.922 | 0.975 | 1 | 0.591 | 0.904 | 0.79 | 0.916 | 0.776 | 0.88 | 0.665 | 0.785 | 0.966
2 | CN(CCO)CC[C@H](CSc1ccccc1)Nc1ccc(S(=O)(=O)NC(=O)c2ccc(N3CCC([C@@H](O)c4ccccc4-c4ccc(Cl)cc4)CC3)cc2)cc1S(=O)(=O)C(F)(F)F [AZD4320] + CCN(CCO)CCCOc1ccc2c(Nc3cc(CC(=O)Nc4cccc(F)c4)[nH]n3)ncnc2c1 [AZD2811] (first compound max 1 µM, 7x7, partner max 1 µM) | 0.418 | 1 | 0.761 | 0.49 | 0.594 | 0.915 | 0.173 | 0.411 | 0.398 | 0.508 | 0.597 | 0.219 | 0.255 | 0.168 | 0.333 | 0.236 | 0.959 | 0.619 | 0.718 | 0.958
3 | CN(CCO)CC[C@H](CSc1ccccc1)Nc1ccc(S(=O)(=O)NC(=O)c2ccc(N3CCC([C@@H](O)c4ccccc4-c4ccc(Cl)cc4)CC3)cc2)cc1S(=O)(=O)C(F)(F)F [AZD4320] + CN(C)CCCOc1ccc(-c2ccc3ncc4c(c3c2)n(C2CCOCC2)c(=O)n4C)cn1 [AZD0156] (first compound max 1 µM, 7x7, partner max 1 µM) | 0.315 | 1 | 0.641 | 0.224 | 0.549 | 0.17 | 0.169 | 0.0943 | 0.183 | 0.227 | 0.68 | 0.136 | 0.118 | 0.208 | 0.0719 | 0.0513 | 0.422 | 0.636 | 0.756 | 0.912
4 | CN(CCO)CC[C@H](CSc1ccccc1)Nc1ccc(S(=O)(=O)NC(=O)c2ccc(N3CCC([C@@H](O)c4ccccc4-c4ccc(Cl)cc4)CC3)cc2)cc1S(=O)(=O)C(F)(F)F [AZD4320] + C[C@@H]1COCCN1C2=NC(=NC(=C2)C3(CC3)[S@](=N)(=O)C)C4=C5C=CNC5=NC=C4 [AZD6738] (first compound max 1 µM, 7x7, partner max 10 µM) | 0.787 | 1 | 0.988 | 0.193 | 0.656 | 0.896 | 0.286 | 0.709 | 0.319 | 0.939 | 0.934 | 0.768 | 0.971 | 0.636 | 0.765 | 0.751 | 0.943 | 0.879 | 0.876 | 0.957
5 | CN(CCO)CC[C@H](CSc1ccccc1)Nc1ccc(S(=O)(=O)NC(=O)c2ccc(N3CCC([C@@H](O)c4ccccc4-c4ccc(Cl)cc4)CC3)cc2)cc1S(=O)(=O)C(F)(F)F [AZD4320] + C[C@@H](Nc1cc(F)cc(F)c1)c1cc(C(=O)N(C)C)cc2c(=O)cc(N3CCOCC3)oc12 [AZD8186] (first compound max 1 µM, 7x7, partner max 3 µM) | 0.414 | 1 | 0.986 | 0.279 | 0.704 | 0.782 | 0.285 | 0.311 | 0.437 | 0.5 | 0.613 | 0.354 | 0.19 | 0.374 | 0.39 | 0.252 | 0.714 | 0.909 | 0.814 | 0.991
6 | CN(CCO)CC[C@H](CSc1ccccc1)Nc1ccc(S(=O)(=O)NC(=O)c2ccc(N3CCC([C@@H](O)c4ccccc4-c4ccc(Cl)cc4)CC3)cc2)cc1S(=O)(=O)C(F)(F)F [AZD4320] + Cc1cc2ncnn2cc1Nc1ncc2c(n1)n(C1CCOCC1)c(=O)n2C [AZD7648] (first compound max 1 µM, 7x7, partner max 10 µM) | 0.444 | 1 | 0.828 | 0.0544 | 0.535 | 0.193 | 0.126 | 0.721 | 0.23 | 0.343 | 0.586 | 0.202 | 0.242 | 0.191 | 0.0876 | 0.0888 | 0.393 | 0.749 | 0.759 | 0.899
7 | CN(CCO)CC[C@H](CSc1ccccc1)Nc1ccc(S(=O)(=O)NC(=O)c2ccc(N3CCC([C@@H](O)c4ccccc4-c4ccc(Cl)cc4)CC3)cc2)cc1S(=O)(=O)C(F)(F)F [AZD4320] + Cn1cnc2c(F)c(Nc3ccc(Br)cc3Cl)c(C(=O)NOCCO)cc21 [Selumetinib] (first compound max 1 µM, 7x7, partner max 3 µM) | 0.468 | 1 | 0.995 | 0.204 | 0.666 | 0.801 | 0.294 | 0.57 | 0.379 | 0.449 | 0.533 | 0.338 | 0.161 | 0.422 | 0.422 | 0.379 | 0.658 | 0.583 | 0.55 | 0.984
8 | Cc1c2c(nn1C)CSCc1cc(n(C)n1)CSc1cc(c3ccccc3c1)OCCCc1c(C(=O)O)n(C)c3c-2c(Cl)ccc13 [AZD5991] + C1CN(CCC1(C(=O)N[C@@H](CCO)C2=CC=C(C=C2)Cl)N)C3=NC=NC4=C3C=CN4 [Capivasertib] (first compound max 1 µM, 7x7, partner max 3 µM) | 1 | 0.43 | 0.387 | 0.2 | 0.139 | 1 | 0.567 | 0.774 | 0.34 | 0.469 | 0.524 | 0.692 | 0.913 | 0.135 | 0.245 | 0.126 | 1 | 0.801 | 0.214 | 0.224
9 | Cc1c2c(nn1C)CSCc1cc(n(C)n1)CSc1cc(c3ccccc3c1)OCCCc1c(C(=O)O)n(C)c3c-2c(Cl)ccc13 [AZD5991] + C=CCn1c(=O)c2cnc(Nc3ccc(N4CCN(C)CC4)cc3)nc2n1-c1cccc(C(C)(C)O)n1 [AZD1775] (first compound max 1 µM, partner max 1 µM) | 1 | 0.945 | 0.86 | 0.269 | 0.402 | 1 | 0.364 | 0.796 | 0.891 | 0.886 | 0.916 | 0.916 | 0.965 | 0.497 | 0.9 | 0.616 | 1 | 0.404 | 0.425 | 0.347
10 | Cc1c2c(nn1C)CSCc1cc(n(C)n1)CSc1cc(c3ccccc3c1)OCCCc1c(C(=O)O)n(C)c3c-2c(Cl)ccc13 [AZD5991] + CC1(C)CCC(CN2CCN(c3ccc(C(=O)NS(=O)(=O)c4ccc(NCC5CCOCC5)c([N+](=O)[O-])c4)c(Oc4cnc5[nH]ccc5c4)c3)CC2)=C(c2ccc(Cl)cc2)C1 [Venetoclax] (first compound max 1 µM, 7x7, partner max 1 µM) | 1 | 0.824 | 0.921 | 0.196 | 0.188 | 1 | 0.779 | 0.717 | 0.151 | 0.305 | 0.76 | 0.682 | 0.637 | 0.201 | 0.412 | 0.334 | 1 | 0.73 | 0.157 | 0.687
11 | Cc1c2c(nn1C)CSCc1cc(n(C)n1)CSc1cc(c3ccccc3c1)OCCCc1c(C(=O)O)n(C)c3c-2c(Cl)ccc13 [AZD5991] + CCN(CCO)CCCOc1ccc2c(Nc3cc(CC(=O)Nc4cccc(F)c4)[nH]n3)ncnc2c1 [AZD2811] (first compound max 1 µM, 7x7, partner max 1 µM) | 1 | 0.842 | 0.614 | 0.262 | 0.264 | 1 | 0.511 | 0.694 | 0.775 | 0.358 | 0.48 | 0.776 | 0.536 | 0.17 | 0.625 | 0.269 | 1 | 0.56 | 0.305 | 0.378
